Source: patent US20070015279A1, “Methods of Selecting Pancreatic Endocrine Cells Using Protein Synthesis Inhibitors” (AmCyte Inc., priority 2005, published 2007)

Tests used:
[1] = system: cultured adult human pancreatic cells; assay: G418 sulfate treatment of HD522B P0 cells, marker mRNA by quantitative RT-PCR; format: cell-based
Method: (§1) HD522B P0 cells were cultured in M3 for 4 days; G418 sulfate in M3 at the following concentrations (μg/ml) was added to the culture: 0, 5, 25, 50, 100, 200, 500, and 1000. The cells were cultured in the presence of G418 sulfate for 48 h, switched to recovery medium (M3/ITS/LIF) for one week and harvested for quantitative RT-PCR analysis. The control group had to be harvested two days post recovery due to confluence. […] At lower dosages, cell death occurred between 1 and 3 days after switch to recovery medium. Cell proliferation could be observed during the recovery period in most of the conditions except in cultures containing 500 and 1000 μg/ml G418 sulfate. Cell confluence from each plate was estimated as following: 0 (100%), 5 (100%), 25 (95%), 50 (85%), 100 (50%), 200 (20%), 500 (less than 5%), 1000 (less than 2%). Approximately equal amount of cells from each plate were used for analysis based on the estimated confluences of each plate except the plates received 500 and 1000 μg/ml G418 sulfate treatment. The β-actin mRNA copy numbers have no significant variation in control group and cells received 5, 25, 50, and 100 μg/ml G418 whereas cells that received 200 to 1000 μg/ml G418 have much lower β-actin expression especially the 500 and 1000 μg/ml samples. This correlated well with the decreased cell confluence in these samples. The expression of endocrine gene markers increased as the concentration of G418 concentration increased to 100 μg/ml and decreased when G418 concentration is above 200 μg/ml. The expression of amylase, an exocrine marker, and nestin, a marker of mesenchymal cell, decreased as G418 concentration increased.

[2] = system: HD522B P0 cells; assay: G418 sulfate treatment of HD522B P0 cells, cell death and confluence; format: cell-based, human; conditions: for Cell confluence (estimated): one week recovery
Method: as §1

[3] = system: HD487B cells; assay: Puromycin selection of HD487B cells, insulin mRNA by quantitative RT-PCR; format: cell-based, human
Method: In an attempt to see if other protein synthesis inhibitors have similar effect as hygromycin B on cultured pancreatic cells puromycin was used in a pilot experiment. We treated P0 cells from HD487B with puromycin at either 2.5 or 5 μg/mL concentrations in SM95/M7 (4:1) for overnight. The cells were recovered in the same medium without puromycin till reaching confluence and passaged to P1. P1 and P2 cells were cultured in SM95/M7 (9:1) with Wnt3a (20 ng/mL). P3 and P4 cells were cultured in SM95/M7 (4:1) with bFGF (50 ng/mL). P5 cells were cultured in maturation medium. We took portions of cells at each passages and analyzed insulin gene expression by quantitative RT-PCR and normalized to β-actin expression. Cells that survived puromycin treatment also expressed insulin at passages 1, 2, 3, 4, and 5.

[4] = system: 30S ribosomal subunit; conditions: cited from earlier work
[5] = system: cells; conditions: cited from earlier work

## geneticin sulfate [G418 Sulfate]
[1]; 5 μg/ml 48 h
  Amylase/β-actin: 1.72E−03
  CK19/β-actin: 7.51E−01
  Delta/β-actin: 1.24E−04
  GCK/β-actin: 2.20E−04
  GLUT2/β-actin: 4.36E−05
  Gcg/β-actin: 1.97E−02
  Insulin/β-actin: 1.67E+00
  NCAM/β-actin: 1.51E−01
  Nestin/β-actin: 2.52E−03
  NeuroD/β-actin: 1.26E−03
  Ngn3/β-actin: 2.45E−07
  Nkx2.2/β-actin: 7.84E−05
  Nkx6.1/β-actin: 4.52E−04
  Notch1/β-actin: 8.14E−05
  P48/β-actin: 8.62E−03
  PDX/β-actin: 7.02E−04
  Pax4/β-actin: 9.82E−06
  SST/β-actin: 5.88E−02
[1]; 25 μg/ml 48 h
  Amylase/β-actin: 6.09E−04
  CK19/β-actin: 1.06E+00
  Delta/β-actin: 1.08E−04
  GCK/β-actin: 2.51E−04
  GLUT2/β-actin: 1.10E−04
  Gcg/β-actin: 4.56E−02
  Insulin/β-actin: 3.40E+00
  NCAM/β-actin: 2.23E−01
  Nestin/β-actin: 1.24E−03
  NeuroD/β-actin: 1.79E−03
  Ngn3/β-actin: 9.19E−07
  Nkx2.2/β-actin: 2.35E−04
  Nkx6.1/β-actin: 6.45E−04
  Notch1/β-actin: 3.02E−04
  P48/β-actin: 1.12E−02
  PDX/β-actin: 1.11E−03
  Pax4/β-actin: 1.24E−05
  SST/β-actin: 1.03E−01
[1]; 50 μg/ml 48 h
  Amylase/β-actin: 4.50E−04
  CK19/β-actin: 1.02E+00
  Delta/β-actin: 7.70E−05
  GCK/β-actin: 3.01E−04
  GLUT2/β-actin: 2.17E−04
  Gcg/β-actin: 9.04E−02
  Insulin/β-actin: 5.51E+00
  NCAM/β-actin: 1.51E−01
  Nestin/β-actin: 5.42E−04
  NeuroD/β-actin: 3.10E−03
  Ngn3/β-actin: 2.13E−06
  Nkx2.2/β-actin: 4.03E−04
  Nkx6.1/β-actin: 6.82E−04
  Notch1/β-actin: 4.91E−04
  P48/β-actin: 9.21E−03
  PDX/β-actin: 1.28E−03
  Pax4/β-actin: 2.63E−05
  SST/β-actin: 1.84E−01
[1]; 100 μg/ml 48 h
  Amylase/β-actin: 5.09E−04
  CK19/β-actin: 9.98E−01
  Delta/β-actin: 1.16E−04
  GCK/β-actin: 8.81E−04
  GLUT2/β-actin: 4.53E−04
  Gcg/β-actin: 1.85E−01
  Insulin/β-actin: 1.06E+01
  NCAM/β-actin: 9.73E−02
  Nestin/β-actin: 3.48E−04
  NeuroD/β-actin: 6.94E−03
  Ngn3/β-actin: 2.71E−06
  Nkx2.2/β-actin: 8.70E−04
  Nkx6.1/β-actin: 9.19E−04
  Notch1/β-actin: 5.39E−04
  P48/β-actin: 7.93E−03
  PDX/β-actin: 1.72E−03
  Pax4/β-actin: 5.31E−05
  SST/β-actin: 4.63E−01
[1]; 200 μg/ml 48 h
  Amylase/β-actin: 1.29E−03
  CK19/β-actin: 4.09E−01
  Delta/β-actin: 2.67E−04
  GCK/β-actin: 2.74E−03
  GLUT2/β-actin: 1.33E−03
  Gcg/β-actin: 5.44E−01
  Insulin/β-actin: 1.56E+01
  NCAM/β-actin: 6.17E−02
  Nestin/β-actin: 1.81E−03
  NeuroD/β-actin: 1.76E−02
  Ngn3/β-actin: 2.37E−06
  Nkx2.2/β-actin: 3.31E−03
  Nkx6.1/β-actin: 1.99E−03
  Notch1/β-actin: 1.60E−03
  P48/β-actin: 1.04E−02
  PDX/β-actin: 6.90E−03
  Pax4/β-actin: 2.32E−04
  SST/β-actin: 1.37E+00
[1]; 500 μg/ml 48 h
  Amylase/β-actin: 7.63E−03
  CK19/β-actin: 1.03E−01
  Delta/β-actin: 1.27E−03
  GCK/β-actin: 1.85E−02
  GLUT2/β-actin: 1.09E−02
  Gcg/β-actin: 3.80E+00
  Insulin/β-actin: 8.21E+01
  NCAM/β-actin: 5.51E−02
  Nestin/β-actin: 3.37E−03
  NeuroD/β-actin: 1.42E−01
  Ngn3/β-actin: 0.00E+00
  Nkx2.2/β-actin: 2.84E−02
  Nkx6.1/β-actin: 1.28E−02
  Notch1/β-actin: 1.93E−03
  P48/β-actin: 2.43E−02
  PDX/β-actin: 5.35E−02
  Pax4/β-actin: 1.50E−03
  SST/β-actin: 8.06E+00
[1]; 1000 μg/ml 48 h
  Amylase/β-actin: 1.24E−02
  CK19/β-actin: 1.44E−02
  Delta/β-actin: 4.18E−03
  GCK/β-actin: 2.39E−02
  GLUT2/β-actin: 1.29E−02
  Gcg/β-actin: 4.98E+00
  Insulin/β-actin: 2.02E+02
  NCAM/β-actin: 3.31E−02
  Nestin/β-actin: 0.00E+00
  NeuroD/β-actin: 1.72E−01
  Ngn3/β-actin: 0.00E+00
  Nkx2.2/β-actin: 6.69E−02
  Nkx6.1/β-actin: 1.37E−02
  Notch1/β-actin: 3.99E−03
  P48/β-actin: 5.95E−02
  PDX/β-actin: 4.87E−02
  Pax4/β-actin: 7.64E−04
  SST/β-actin: 2.43E+01
[2]; 5 μg/ml 48 h
  Cell confluence (estimated): 100%
[2]; 25 μg/ml 48 h
  Cell confluence (estimated): 95%
[2]; 50 μg/ml 48 h
  Cell confluence (estimated): 85%
[2]; 100 μg/ml 48 h
  Cell confluence (estimated): 50%
[2]; 200 μg/ml 48 h
  Cell confluence (estimated): 20%
[2]; 500 μg/ml 48 h
  Cell confluence (estimated): less than 5%
[2]; 1000 μg/ml 48 h
  Cell confluence (estimated): less than 2%
[2]; 500 and 1000 μg/ml groups, from start of treatment
  time to observed cell death: ≤ 24 h

## COc1ccc(C[C@H](N)C(=O)N[C@H]2[C@@H](O)[C@H](n3cnc4c(N(C)C)ncnc43)O[C@@H]2CO)cc1 [puromycin]
[3]; HD487B P1, 2.5 μg/mL @ P0
  Insulin expression (normalized to β-actin): 3.96E−01
[3]; HD487B P1, 5 μg/mL @ P0
  Insulin expression (normalized to β-actin): 8.48E−02
[3]; HD487B P2, 2.5 μg/mL @ P0
  Insulin expression (normalized to β-actin): 1.39E−02
[3]; HD487B P2, 5 μg/mL @ P0
  Insulin expression (normalized to β-actin): 2.51E−02
[3]; HD487B P3, 2.5 μg/mL @ P0
  Insulin expression (normalized to β-actin): 9.89E−03
[3]; HD487B P3, 5 μg/mL @ P0
  Insulin expression (normalized to β-actin): 2.63E−02
[3]; HD487B P4, 2.5 μg/mL @ P0
  Insulin expression (normalized to β-actin): 3.46E−03
[3]; HD487B P5, 2.5 μg/mL @ P0
  Insulin expression (normalized to β-actin): 1.83E−03

## neomycin
[4]; 3 μg/mL
  reduction of the rate of 30S formation compared with control cells: about 80%
[4]
  IC50 for 30S particle formation: equal to the IC50 for inhibition of translation
[5]
  IC50, viable cell number: 2 mg/L
